Data set [1] addresses T1, CYP2C19 (Homo sapiens, UniProt P33261).
In data set [2] the target is T1, CYP2C19. As to conditions: human liver microsomes; result in words; cited from earlier work.
Setting [3] is: trial 17028, healthy volunteers, N = 16.

T1 sequence (P33261 whole entry): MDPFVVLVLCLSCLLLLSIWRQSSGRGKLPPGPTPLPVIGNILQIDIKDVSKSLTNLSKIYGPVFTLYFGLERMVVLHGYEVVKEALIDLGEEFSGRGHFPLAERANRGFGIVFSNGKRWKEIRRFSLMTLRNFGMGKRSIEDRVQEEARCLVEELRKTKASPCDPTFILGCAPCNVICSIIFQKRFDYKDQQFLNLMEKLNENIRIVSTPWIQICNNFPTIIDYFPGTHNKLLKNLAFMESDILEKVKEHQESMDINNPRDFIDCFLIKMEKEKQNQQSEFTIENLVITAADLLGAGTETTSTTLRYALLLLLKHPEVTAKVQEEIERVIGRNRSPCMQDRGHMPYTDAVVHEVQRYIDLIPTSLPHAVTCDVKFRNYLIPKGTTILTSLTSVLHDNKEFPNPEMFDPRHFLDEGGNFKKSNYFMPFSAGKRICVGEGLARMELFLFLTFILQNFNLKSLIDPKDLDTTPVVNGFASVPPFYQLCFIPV

With `C=C(C)[C@@H]1CCC(C)=C[C@H]1c1c(O)cc(CCCCC)cc1O` [CBD, cannabidiol], for the setting “trial 17028”, the “elevation in AST levels observed” value was “four” and the “elevations in alanine aminotransferase levels observed” value was “three”. Also, under setting [3], the “AEs leading to withdrawal” value was 2 (13) n (%), the Abdominal pain is listed as 2 (13) n (%), the Chromaturia is listed as 0 (0) n (%) and the Death is 0 (0) n (%). Moreover, under setting [3], the Diarrhea is 6 (38) n (%), the Fatigue is reported as 3 (19) n (%), the Flatulence is recorded as 0 (0) n (%) and the Headache is on record as 4 (25) n (%). In addition, under setting [3], the Hepatic enzyme increased is 4 (25) n (%), the Nausea is listed as 2 (13) n (%), the “Patient with at least 1 AE” value was 15 (94) n (%) and the “Serious AEs” value is given as 0 (0) n (%). Moreover, under setting [3], the “Severe AEs” value was 0 (0) n (%) and the Somnolence is given as 5 (31) n (%). Further, the “healthy volunteers with elevations in transaminase levels reported as AEs” value (trial 17028, of 16) turned out to be 25%. The “healthy volunteers reporting AEs” value (trial 17028, of 16, CBD as multiple doses) amounted to 94%. At CYP2C19 [1] (result in words), the “clearance with concomitant FLU” value is “not affected” and the “t ½ with concomitant FLU” value was “not affected”. Further, on CYP2C19 [1] (single dose of CBD), the “increase in AUCtau with concomitant steady‐state FLU” value came out at 21% and the “increase in C max with concomitant steady‐state FLU” value is recorded as 24%. Also, the “inhibition of CYP2C19” value on CYP2C19 [2] is listed as “potently inhibits”.

Source of the values: article PMC7693203 (Epilepsia, 2020).
